Results as given in patent US7049116B2, “Engineered protein kinases which can utilize modified nucleotide triphosphate substrates” (Princeton University, priority 1997, dated 2006).
“Also recorded” adds a separate entry of the source. Blank lines part the entries; values can stand above or below the compound they belong to.

Experiments:
[1] = system: B cell receptor (BCR) mediated phosphorylation cascade in murine spleen cells; assay: Murine B cell assay (B cell receptor mediated tyrosine phosphorylation); type: cell-based; conditions: 100 μM in […] DMSO, anti-IgM stimulated murine spleen cells
Experimental: Splenic lymphocytes were isolated from 6-20 week old Balb/c or C57/B6 mice. The cells were washed out of the spleen into RPMI media containing 1 mg/ml DNase I and the red blood cells were lysed in 17 mM tris-ammonium chloride (pH 7.2). Approximately 4×10^6 cells were incubated at 37° C. for thirty minutes with 100 μM of (3g) or (2) in 1.1% DMSO. B cell stimulation was initiated by the addition of […] of goat anti-mouse IgM (Jackson ImmunoResearch) and subsequent incubation for five minutes at 37° C. The cells were isolated by centrifugation (13,000 rpm, two minutes) and lysed (lysis buffer: 1% Triton x-100, 50 mM Tris (pH 7.4), 2 mM EDTA, 150 mM NaCl, 100 mM PMSF, 2 mM sodium orthovanadate, 10 mg/ml leupeptin, 10 mg/ml apoprotin). The cellular debris was then pelleted at 13,000 rpm for fifteen minutes. Cellular proteins were separated by 10% polyacrylamide gel electrophoresis and transferred to a nitrocellulose membrane by Western blotting. Phosphotyrosine containing proteins were visualized by immunoblotting with anti-phosphotyrosine antibody (Upstate Biotechnology).

WT Fyn [2] = molecular target: T1, WT Fyn (Homo sapiens, UniProt P06241); assay: In vitro kinase inhibition assay; type: biochemical; set-up: inhibition of Fyn: dose or concentration left out as unconfirmed
T1 construct: GST; made in house; host or cells: E. coli DH5α (pGEX-KT)

GST-XD4 [3] = molecular target: T2, GST-XD4 (Rous sarcoma virus subgroup A, UniProt P00524, DEL77-225); type: biochemical
T2 construct: contains an intact SH1 catalytic domain but lacks the non-catalytic regulatory SH3 and SH2 domains; made in house; host or cells: E. coli DH5α (pGEX-KT)
Experimental: (§1) Kinetic constants were determined by analysis of Lineweaver-Burk plots of the rate data (64). […] ATP (1000 cpm/pmol) or [γ-^32P] N^6(cyclopentyl)ATP (5000 cpm/pmol) as indicated.

GST-XD4 (V323A, I338A) [4] = type: biochemical, Rous sarcoma virus
Experimental: as §1

GST-XD4 (V323A, I338A) [5] = molecular target: T3, GST-XD4 (V323A, I338A) (Rous sarcoma virus subgroup A, UniProt P00524, DEL77-225/I338A/V323A); type: biochemical; conditions: GST-XD4 (V323A, I338A), 1 mM RR-Src, 37° C., pH 8.0
T3 construct: contains an intact SH1 catalytic domain but lacks the non-catalytic regulatory SH3 and SH2 domains; made in house; host or cells: E. coli DH5α (pGEX-KT)
Experimental: as §1

GST-XD4 (I338A) = molecular target: T4, GST-XD4 (I338A) (Rous sarcoma virus subgroup A, UniProt P00524, DEL77-225/I338A); assay: Autophosphorylation of single mutation v-Src mutants; type: biochemical; conditions: mutant with alanine at position 338
T4 construct: made in house
From the text: (§2) However, these had only single mutations, at position 338. These were again expressed as GST-XD4 fusion proteins.
(§3) The panels on the right side of FIG. 7 tell an even more interesting story.

[6] = system: tyrosine kinases of murine lymphocyte cell lysate (CF); assay: Screening of nucleotide analogs in murine lymphocyte lysate, anti-phosphotyrosine immunoblot; type: biochemical; conditions: 100 μM nucleotide triphosphate, 37° C., five minutes
Experimental: To identify compounds that would not be accepted as substrates by any existing cellular kinases (53), Applicant screened a panel of synthetic A^*TP analogs in a murine lymphocyte lysate (CF) rich in protein tyrosine kinases (13).
The assays were performed using spleenocytes (8-30 week old male and female C57/B6 mice from the Princeton University Animal Facility) which were isolated and washed in RPMI-1640 medium containing 5% Bovine Calf Serum (BCS), 1% Hepes and DNaseI (1 μg/ml). Red cells were lysed at 4° C. by treatment with 17 mM Tris ammonium chloride (pH 7.2). The cells were hypotonically lysed on ice for ten minutes in 1 mM Hepes (pH 7.4), 5 mM MgCl2, leupeptin (10 μg/ml), aprotinin (10 μg /ml) and 100 μM PMSF according to the method of Fukazawa et al. (51). After vortexing and centrifugation at 500 × g, the supernatant was collected. Cells were stored at 4° C. for twenty minutes to attenuate the basal protein phosphorylation level, after which the buffer was adjusted to 20 mM Hepes (pH 7.4), 10 mM MgCl2 and 1 mM NaF. Sodium vanadate (100 μM) was then added to inhibit the activity of phosphotyrosine phosphatases.
Each nucleotide triphosphate was added to a final concentration of 100 μM to 5×10^6 cell equivalents and incubated at 37° C. for five minutes after which 4 × Laemmli gel loading buffer was added to the cell lysate to quench the reaction. Proteins were separated by 12.5% SDS-PAGE and transferred to Protran BA85 (Schleicher-Schuell). The blot was probed with the anti-phosphotyrosine monoclonal antibody 4G10 (Upstate Biotechnology) and the bound antibody was detected via enhanced chemiluminescence (Pierce) following treatment with HRP-coupled goat anti-mouse antibody (VWR catalog #710133) according to the manufacturer's instructions.
The cell lysate used includes the tyrosine kinases Src, Fyn, Lck, Lyn, Yes, Fgr, Hck, Zap, Syk, Btk, Blk, and other tyrosine kinases present in B and T lymphocytes, macrophages, and follicular dendritic cells (13). Molecular size standards (in kilodaltons) arc indicated.

I338G v-Src = molecular target: T5, I338G v-Src (Rous sarcoma virus subgroup A, UniProt P00524, DEL77-225/I338G); assay: biochemical
T5 construct: made in house; host or cells: E. coli DH5α (pGEX-KT)

GST-XD4 (V323A, I338A) [7] = conditions: 100 μM analog, 10 μM [γ-32P]ATP
[8] = system: wild-type cellular kinases of murine lymphocyte lysates; assay: In vitro kinase reactions with radiolabeled nucleotide in murine lymphocyte lysates; type: biochemical; conditions: 100 μM radiolabeled nucleotide, 37° C., ten minutes
GST-XD4 (I338S) = molecular target: T6, GST-XD4 (I338S) (Rous sarcoma virus subgroup A, UniProt P00524, DEL77-225/I338S); assay: Autophosphorylation of single mutation v-Src mutants; type: biochemical; conditions: mutant with serine at position 338
T6 construct: made in house
From the text: as §2, §3

GST-XD4 (I338G) = molecular target: T7, GST-XD4 (I338G) (Rous sarcoma virus subgroup A, UniProt P00524, DEL77-225/I338G); assay: as above; type: biochemical; conditions: mutant with glycine at position 338
T7 construct: made in house; host or cells: E. coli DH5α (pGEX-KT)
From the text: as §2, §3

GST-XD4 (V323A, I338A) [9] = molecular target: T3, GST-XD4 (V323A, I338A); assay: Autophosphorylation autoradiogram; type: biochemical; conditions: FIG. 5C lane 4
From the text: (§4) It is even more significant that the new substrate, [γ-^32P]

GST-XD4 [10] = molecular target: T2, GST-XD4; assay: Autophosphorylation autoradiogram; type: biochemical; conditions: GST-XD4, FIG. 5C lane 3
From the text: as §4

PDGFR = conditions: cited from earlier work
WT Fyn [11] = molecular target: T1, WT Fyn; conditions: published parent molecule; cited from earlier work

T1 sequence (P06241 1-534 isoform P06241-2): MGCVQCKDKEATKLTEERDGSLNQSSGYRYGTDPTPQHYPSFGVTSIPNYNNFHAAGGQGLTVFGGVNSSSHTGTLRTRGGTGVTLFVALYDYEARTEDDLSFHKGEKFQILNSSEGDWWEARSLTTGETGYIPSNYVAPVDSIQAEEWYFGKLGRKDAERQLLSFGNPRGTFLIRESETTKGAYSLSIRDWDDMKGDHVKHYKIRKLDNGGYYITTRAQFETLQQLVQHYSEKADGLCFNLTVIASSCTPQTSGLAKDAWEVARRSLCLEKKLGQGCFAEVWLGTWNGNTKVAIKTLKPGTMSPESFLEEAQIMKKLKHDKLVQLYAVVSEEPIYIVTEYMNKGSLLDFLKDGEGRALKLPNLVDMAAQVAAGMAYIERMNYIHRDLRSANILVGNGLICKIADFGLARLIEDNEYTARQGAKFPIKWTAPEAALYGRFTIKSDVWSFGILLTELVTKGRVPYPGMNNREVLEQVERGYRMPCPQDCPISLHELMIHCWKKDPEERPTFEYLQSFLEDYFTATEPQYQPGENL

inhibition of WT Fyn (in words) (WT Fyn [2]): highly potent (low nM)
SMILES: CC(C)(C)n1nc(-c2ccccc2)c2c(N)ncnc21 [(2), 4-amino-1-tert-butyl-3-phenylpyrazolo(3,4-d)pyrimidine, reference compound]
phosphotyrosine pattern of B cell stimulation [1]: significant reduction in tyrosine phosphorylation

SMILES: Nc1ncnc2c1ncn2[C@@H]1O[C@H](COP(=O)(O)OP(=O)(O)OP(=O)(O)O)[C@@H](O)[C@H]1O [ATP, adenosine triphosphate, reference compound]
kcat (GST-XD4 [3]; GST-XD4, 1 mM RR-Src, 37° C., pH 8.0): 0.033 ± 0.0083 s⁻¹
KM of the mutant for ATP relative to KM of GST-XD4 for ATP (GST-XD4 (V323A, I338A) [4]; higher in mutant): more than 10 fold
kcat (GST-XD4 (V323A, I338A) [5]): 0.013 ± 0.0033 s⁻¹
utilization as phosphate donor substrate (autophosphorylation) (GST-XD4 (I338A)): more readily than the mutant with serine; also recorded: better able to use ATP as a substrate than is the mutant with glycine

SMILES: CONc1ncnc2c1ncn2[C@@H]1O[C@H](COP(=O)(O)OP(=O)(O)OP(=O)(O)O)[C@@H](O)[C@H]1O [Analog 1, N^6(methoxy)ATP]
level of protein tyrosine phosphorylation (ability to serve as cellular tyrosine kinase substrate) [6]: some ability to serve as cellular tyrosine kinase substrates

SMILES: CCONc1ncnc2c1ncn2[C@@H]1O[C@H](COP(=O)(O)OP(=O)(O)OP(=O)(O)O)[C@@H](O)[C@H]1O [Analog 2, N^6(ethoxy)ATP]
level of protein tyrosine phosphorylation (ability to serve as cellular tyrosine kinase substrate) [6]: some ability to serve as cellular tyrosine kinase substrates

SMILES: CC(=O)Nc1ncnc2c1ncn2[C@@H]1O[C@H](COP(=O)(O)OP(=O)(O)OP(=O)(O)O)[C@@H](O)[C@H]1O [Analog 3, N^6(acetyl)ATP]
level of protein tyrosine phosphorylation (ability to serve as cellular tyrosine kinase substrate) [6]: some ability to serve as cellular tyrosine kinase substrates

SMILES: CC(C)ONc1ncnc2c1ncn2[C@@H]1O[C@H](COP(=O)(O)OP(=O)(O)OP(=O)(O)O)[C@@H](O)[C@H]1O [Analog 4, N^6(i-propoxy)ATP]
level of protein tyrosine phosphorylation (ability to serve as cellular tyrosine kinase substrate) [6]: little or no protein phosphorylation

SMILES: CC(C)(C)n1nc(-c2ccccc2)c2c(NCC3CCCC3)ncnc21 [Analog 4b, 4-cyclopentylmethylamino-1-tert-butyl-3-phenylpyrazolo[3,4-d]pyrimidine]
inhibition of WT Fyn (in words) (WT Fyn [2]): sufficiently orthogonal
inhibition of I338G v-Src (in words) (I338G v-Src): only poor to moderate inhibition

SMILES: CC(C)(C)n1nc(-c2ccccc2)c2c(NCc3ccco3)ncnc21 [Analog 4d, 4-2′-furylmethylamino-1-tert-butyl-3-phenylpyrazolol[3,4-d]pyrimidine]
inhibition of WT Fyn (in words) (WT Fyn [2]): sufficiently orthogonal
inhibition of I338G v-Src (in words) (I338G v-Src): only poor to moderate inhibition

SMILES: CC(C)(C)n1nc(-c2ccccc2)c2c(NCc3ccccc3)ncnc21 [Analog 4e, 4-benzylamino-1-tert-buty-3-phenylpyrazolo[3,4-d]pyrimidine]
inhibition of WT Fyn (in words) (WT Fyn [2]): sufficiently orthogonal
inhibition of I338G v-Src (in words) (I338G v-Src): only poor to moderate inhibition

SMILES: O=P(O)(O)OP(=O)(O)OP(=O)(O)OC[C@H]1O[C@@H](n2cnc3c(NCc4ccccc4)ncnc32)[C@H](O)[C@@H]1O [Analog 5, N^6(benzyl)ATP]
level of protein tyrosine phosphorylation (ability to serve as cellular tyrosine kinase substrate) [6]: little or no protein phosphorylation
relative inhibition of GST-XD4 (V323A, I338A) catalyzed RR-Src phosphorylation (GST-XD4 (V323A, I338A) [7]): almost as well as the wild-type kinase

SMILES: O=P(O)(O)OP(=O)(O)OP(=O)(O)OC[C@H]1O[C@@H](n2cnc3c(NOCc4ccccc4)ncnc32)[C@H](O)[C@@H]1O [Analog 6, N^6(benzyloxy)ATP]
level of protein tyrosine phosphorylation (ability to serve as cellular tyrosine kinase substrate) [6]: little or no protein phosphorylation

SMILES: O=P(O)(O)OP(=O)(O)OP(=O)(O)OCC1OC(n2cnc3c(NC4CCCC4)ncnc32)C(O)C1O (stereo not shown) [Analog 8, N^6(cyclopentyl)ATP]
level of protein tyrosine phosphorylation (ability to serve as cellular tyrosine kinase substrate) [6]: slightly lower level of phosphorylation with wild-type kinases
radiolabeled phosphoproteins in cell lysate [8]: no radiolabeled phosphoproteins
phosphorylation of RR-Src peptide with the nucleotide as phosphate donor (GST-XD4 [3]; wild-type GST-XD4): did not substantially phosphorylate
kcat/KM of mutant with orthogonal substrate relative to kcat/KM of wild-type kinase with ATP (GST-XD4 (V323A, I338A) [4]; lower than wild-type with ATP): 50 fold
kcat (GST-XD4 (V323A, I338A) [5]): 0.00083 ± 0.00033 s⁻¹
utilization as phosphate donor substrate (autophosphorylation) (GST-XD4 (I338S)): not able to utilize N6(cyclopentyl)ATP nearly as well as is the mutant with alanine
utilization as phosphate donor substrate (autophosphorylation) (GST-XD4 (I338G)): better able to use N^6(cyclopentyl)ATP as substrate than is the mutant with alanine
use as phosphodonor for autophosphorylation (GST-XD4 (V323A, I338A) [9]): efficiently autophosphorylated
use as phosphodonor for autophosphorylation (GST-XD4 [10]): apparent complete inability
relative inhibition of GST-XD4 (V323A, I338A) catalyzed RR-Src phosphorylation (GST-XD4 (V323A, I338A) [7]): almost as well as the wild-type kinase

SMILES: O=P(O)(O)OP(=O)(O)OP(=O)(O)OC[C@H]1O[C@@H](n2cnc3c(NOC4CCCC4)ncnc32)[C@H](O)[C@@H]1O [Analog 9, N^6(cyclopentyloxy)ATP]
relative inhibition of GST-XD4 (V323A, I338A) catalyzed RR-Src phosphorylation (GST-XD4 (V323A, I338A) [7]): almost as well as the wild-type kinase

SMILES: O=P(O)(O)OP(=O)(O)OP(=O)(O)OC[C@H]1O[C@@H](n2cnc3c(NC4CCCCC4)ncnc32)[C@H](O)[C@@H]1O [Analog 11, N^6(cyclohexyl)ATP]
relative inhibition of GST-XD4 (V323A, I338A) catalyzed RR-Src phosphorylation (GST-XD4 (V323A, I338A) [7]): almost as well as the wild-type kinase

SMILES: OCC1OC(n2cnc3c(NOC4CCCC4)ncnc32)C(O)C1O (stereo not shown) [N^6 cyclopentyloxyadenosine]
inhibition of Fyn (WT Fyn [2]; concentrations up): no detectable in vitro inhibition

SMILES: Cc1ccc(-c2nn(C(C)(C)C)c3ncnc(N)c23)cc1 [PPI, 4-amino-1-tert-butyl-3-(p-methylphenyl)pyrazolo(3,4-d)pyrimidine]
inhibition of Fyn (in words) (WT Fyn [11]): highly potent (low nM)
